Results on 34 molecules are retold here after patent publication US20260176270A1 (Exelixis, Inc., priority 2022, published 2026).

In assay [1] the target is T1, PKMYT1 (Homo sapiens, UniProt Q99640).
T1 construct: PKMYT1 (93 kD, full length, N-terminal GST tag from Signal Chem); GST (N); purchased Signal Chem
T1 sequence (Q99640 1-499): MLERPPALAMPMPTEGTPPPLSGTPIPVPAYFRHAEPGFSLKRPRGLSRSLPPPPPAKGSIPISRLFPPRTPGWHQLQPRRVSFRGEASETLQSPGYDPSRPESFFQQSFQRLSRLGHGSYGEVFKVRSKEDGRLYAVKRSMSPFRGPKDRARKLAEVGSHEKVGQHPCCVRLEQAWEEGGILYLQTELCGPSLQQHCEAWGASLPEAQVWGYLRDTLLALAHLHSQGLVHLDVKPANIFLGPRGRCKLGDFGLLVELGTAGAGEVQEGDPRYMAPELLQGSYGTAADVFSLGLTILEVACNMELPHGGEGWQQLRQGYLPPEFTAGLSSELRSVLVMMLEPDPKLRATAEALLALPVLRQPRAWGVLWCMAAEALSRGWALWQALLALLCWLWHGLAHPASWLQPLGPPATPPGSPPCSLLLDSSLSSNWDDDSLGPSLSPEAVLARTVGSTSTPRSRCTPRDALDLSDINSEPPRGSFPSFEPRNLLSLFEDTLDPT
Nature of the assay: ADP-Glo PKMYT1 ATP-depletion assay. The settings on record: 50 nM PKMYT1, 13.3 nM CDK1, read-out: Biochemical IC50. On the procedure:
(§1) Biochemical IC50 values were determined via ADP-Glo™ assay. Cellular IC50 values were determined via AlphaLISA assay.
ADP-Glo™ PKMYT1 ATP-depletion assay. The activity of PKMYT1 is measured using a luciferase-luciferin based ATP detection reaction to quantify ATP depletion resulting from kinase-catalyzed phosphoryl transfer to CDK1 or autophosphorylation of PKMYT1. The ADP generated as a byproduct of the reaction is converted to ATP and used to drive a luciferase reaction. Test compounds were dissolved in DMSO and dispensed into Corning 3824 384-well plates prior to the experiment such that the final DMSO concentration was <1%. To the compounds was added 3 μL of PKMYT1 (93 kD, full length, N-terminal GST tag from Signal Chem). The reaction was started by the addition of 2 μL of CDK1 (58 kDa, full length, N-terminal GST tag from Signal Chem) and ATP in assay buffer (50 mM Hepes, 40 mM NaCl, 10 mM MgCl2, 1 mM DTT, 0.1 mg/mL BSA, 2.5 mM MnCl2). Final assay concentrations were 50 nM PKMYT1, 13.3 nM CDK1, and 88 µM ATP. Plates were centrifuged for 1 minute at 1000 RPM and incubated at RT for 120 minutes. After the incubation period, ADP-Glo™ reagent was added and the plates were incubated for another 40 minutes before finally adding the kinase detection reagent. 30 minutes after the addition, plates were placed on a PHERAstar® plate reader and read using the Luminescence Protocol, integration time at 0.5 seconds.
(ADP-Glo first removes unused ATP, then detects ADP through luciferase.)

Assay [2] deals with phosphorylation of CDK1 at Thr14 in HCC1806 cells. Nature of the assay: Cell lysate AlphaLISA assay measuring inhibition of phosphorylation of CDK1 Thr14. The assay is classed as cell-based. The note with it: read-out: Cellular IC50. The method, then:
as §1
Cell lysate AlphaLISA® assay measuring inhibition of phosphorylation of CDK1 Thr14. Inhibition of phosphorylation of CDK1 at Thr14 was determined using AlphaLISA® SureFire® Ultra™ Kit from Perkin Elmer (ALSU-PCDK1-A10K). HCC1806 cells were seeded at 2K cells per well (50 μl/well) in 384-well plates (Corning 3570) and stored overnight at 37° C. and 5% CO2. The following day, the compounds dissolved in DMSO were introduced to the cells and incubated for 4 hours at 37° C. and 5% CO2. The cells were then washed with PBS using Blue®Washer and 10 μl of lysis buffer containing protease inhibitor was added. The plate was placed on an orbital shaker (at 4° C.) for 30 minutes and stored overnight at −80° C. for complete lysing. The next day, the plates were thawed at room temperature for at least 30 min. Reagents were prepared in a dimmed light setting (<100 lumens). The assay was run by first adding 5 μl of the acceptor mix (reaction buffer 1: reaction buffer 2: activation buffer: acceptor beads 47:47:4:2), covering the plate with foil, shaking for 2 minutes and incubating at RT for 60 minutes. The donor mix (dilution buffer: donor beads 47:3) was then added at 5 μl per well, placed on the shaker for 2 minutes and incubated at RT for 60 minutes before reading the plates on a PHERAstar® plate reader. The results were normalized to DMSO (0% Inhibition) and 3 μM of reference compound.
In general terms: Bead proximity is the source of the signal in Alpha formats.

Like-named read-outs stand apart in the source and are kept apart here.

The IC50 is the concentration that inhibits the measured activity by half. With `Cc1ccc(O)c(C)c1-c1c(N)c(C(N)=O)nc2ccc(F)cc12` (atropisomer, axis not shown; (P)) [Compound 24, (P)-3-amino-6-fluoro-4-(3-hydroxy-2,6-dimethylphenyl) quinoline-2-carboxamide], the IC50 in assay [1] was 1000 to 5000 nM; in assay [2] (4 hours) it was at least 5 µM.
Consider `Cc1c(O)cccc1-c1cc(C(N)=O)cc2nccnc12` [Compound 80, 8-(3-Hydroxy-2-methylphenyl)quinoxaline-6-carboxamide], for which the IC50 was 1000 to 5000 nM in assay [1] and at least 5 µM in assay [2] (Homo sapiens, HCC1806, 4 h).
Take `COc1cncc(-c2c(N)c(C(N)=O)nc3cccnc23)c1C` [Compound 153]: the values for the IC50 in assay [1] and in assay [2] (4 hours) were 50 to 500 nM and 0.5 to 1 µM, respectively.
Regarding `NC(=O)c1cc2nccnc2c(-c2cccc(O)c2F)c1N` [Compound 120, 7-Amino-8-(2-fluoro-3-hydroxyphenyl)quinoxaline-6-carboxamide], the IC50 in assay [1] lay in the range of 50 to 500 nM; in assay [2] (Homo sapiens, HCC1806, 4 h), 0.05 to 0.5 µM.
Regarding `NC(=O)c1nc2c(c(-c3cc(O)cnc3F)c1N)NCCC2` (atropisomer, axis not shown) [Compound 296], the figures for the concentration for half-maximal inhibition (IC50) in assay [1] and in assay [2] (4 hours) were at least 5000 nM and at least 5 µM, respectively.
`Cc1c(O)cccc1-c1c(N)c(C(N)=O)nc2ccccc12` [Compound 18, 3-Amino-4-(3-hydroxy-2-methylphenyl)quinoline-2-carboxamide]: the IC50 in assay [1] was in the range of 50 to 500 nM; in assay [2] (Homo sapiens, HCC1806, 4 h) it was 1 to 5 µM.
The matching figures for `Cc1ccc(O)c(C)c1-c1c(N)c(C#N)cc2nccnc12` [Compound 298]: 1000 to 5000 nM and at least 5 µM.
The corresponding values for `COc1cccc(-c2cc(C(N)=O)nc3c(C)ccc(C)c23)c1C` [Compound 134] are at least 5000 nM and at least 5 µM.
For `Cc1c(O)cccc1-c1c(N)c(C(N)=O)nc2cccnc12` [Compound 2, 3-Amino-4-(3-hydroxy-2-methylphenyl)-1,5-naphthyridine-2-carboxamide], the half-maximal inhibitory concentration (IC50) was below 50 nM in assay [1] and 0.05 to 0.5 µM in assay [2] (Homo sapiens, HCC1806, 4 h).
In the case of `Cc1c(O)cccc1-c1c(N)c(C(N)=O)cc2nc(C(F)(F)F)cnc12` (atropisomer, axis not shown; (M)) [Compound 103, (M)-7-Amino-8-(3-hydroxy-2-methylphenyl)-3-(trifluoromethyl)quinoxaline-6-carboxamide], the values for the IC50 in assay [1] and in assay [2] (4 hours) were 1000 to 5000 nM and at least 5 µM, respectively.
With `NC(=O)c1nc2cccnc2c(-c2cccc3c2CCN3C=O)c1N` [Compound 162], the IC50 is at least 5000 nM in assay [1] and at least 5 µM in assay [2] (Homo sapiens, HCC1806, 4 h).
Regarding `Cc1c(O)cccc1-c1c(N)c(C(N)=O)cc2ncccc12` (atropisomer, axis not shown; (M)) [Compound 68, (M)-6-Amino-5-(3-hydroxy-2-methylphenyl)quinoline-7-carboxamide], the 50% inhibitory concentration (IC50) in assay [1] is 50 to 500 nM; in assay [2] (4 hours), 0.5 to 1 µM.
In the case of `Cc1ccc(O)c(C)c1-c1c(N)c(C(N)=O)cc2nccnc12` (single isomer, unassigned) [Compound 85, (M)-7-amino-8-(3-hydroxy-2,6-dimethylphenyl)quinoxaline-6-carboxamide], the IC50 in assay [1] is 1000 to 5000 nM; in assay [2] (4 hours) it was at least 5 µM.
The matching figures for `Cc1c(O)cccc1-c1c(N)c(C(N)=O)cc2ccn(C)c(=O)c12` (atropisomer, axis not shown) [Compound 336]: below 50 nM and 0.05 to 0.5 µM.
Turning to `Cc1c(O)cccc1-c1c(N)c(C(N)=O)cc2ncc(C(F)(F)F)nc12` (single isomer, unassigned) [Compound 125, (M)-7-Amino-8-(3-hydroxy-2-methylphenyl)-2-(trifluoromethyl)-quinoxaline-6-carboxamide], the IC50 was 1000 to 5000 nM in assay [1] and at least 5 µM in assay [2] (4 hours).
The corresponding values for `Cc1ccc(O)c(C)c1-c1c(N)c(C(N)=O)nc2c(C(F)(F)F)cccc12` (single isomer, unassigned) [Compound 31, (P)-3-amino-4-(3-hydroxy-2,6-dimethylphenyl)-8-(trifluoromethyl) quinoline-2-carboxamide] are at least 5000 nM and at least 5 µM.
In the case of `Cc1ncccc1-c1c(N)c(C(N)=O)nc2cccnc12` [Compound 207], the IC50 in assay [1] is at least 5000 nM; in assay [2] (Homo sapiens, HCC1806, 4 h), at least 5 µM.
For the molecule `NC(=O)c1nc2cccnc2c(-c2c(F)ccc3[nH]ncc23)c1N` [Compound 220], the half-maximal inhibitory concentration (IC50) in assay [1] lay in the range of 50 to 500 nM; in assay [2] (4 hours), 1 to 5 µM.
As for `Cc1ccc(O)c(C)c1-c1c(N)c(C(N)=O)nc2c(C)cccc12` [Compound 27, 3-Amino-4-(3-hydroxy-2,6-dimethylphenyl)-8-methylquinoline-2-carboxamide], the IC50 fell in the range of 500 to 1000 nM in assay [1] and 1 to 5 µM in assay [2] (Homo sapiens, HCC1806, 4 h).
Consider `Cc1ccncc1-c1c(N)c(C(N)=O)nc2cccnc12` [Compound 184], for which the IC50 was 50 to 500 nM in assay [1] and at least 5 µM in assay [2] (Homo sapiens, HCC1806, 4 h).
In the case of `Cc1c(O)cccc1-c1c(N)c(C(N)=O)nc2cccc(S(C)(=O)=O)c12` [Compound 319], the IC50 in assay [1] was 50 to 500 nM; in assay [2] (Homo sapiens, HCC1806, 4 h), 0.5 to 1 µM.
In the case of `COc1ccnc2c(-c3c(C)ccc(O)c3C)c(N)c(C(N)=O)cc12` [Compound 330], the IC50 was below 50 nM in assay [1] and below 0.05 µM in assay [2] (Homo sapiens, HCC1806, 4 h).
On to `Cc1c(-c2c3c(cc4nccnc24)C(=O)NC(C)(C)N3)ccc(F)c1O` (atropisomer, axis not shown) [Compound 312], for which the IC50 was at least 5000 nM in assay [1] and at least 5 µM in assay [2] (Homo sapiens, HCC1806, 4 h).
`Cc1c(O)cccc1-c1c(N)c(C(N)=O)cc2ccn(C)c(=O)c12` (atropisomer, axis not shown) [Compound 337]: the IC50 in assay [1] was in the range of 500 to 1000 nM; in assay [2] (4 hours), 1 to 5 µM.
As to `Cc1ccc(O)c(C)c1-c1c(N)c(C#N)cc2nccnc12` (atropisomer, axis not shown) [Compound 302], the IC50 in assay [1] is 1000 to 5000 nM; in assay [2] (4 hours), at least 5 µM.
Regarding `NC(=O)c1cc2nccnc2c(-c2cc(O)ccc2Cl)c1N` (atropisomer, axis not shown) [Compound 152], the half-maximal inhibitory concentration (IC50) in assay [1] is at least 5000 nM.
`Cc1ccc(O)c(C)c1-c1c(N)c(C(N)=O)cc2nc(C)c(C)nc12` (atropisomer, axis not shown) [Compound 140]: the 50% inhibitory concentration (IC50) in assay [1] was at least 5000 nM.
Regarding `Cc1ccc2nc(C(N)=O)c(N)c(-c3cccc(O)c3C)c2c1` (atropisomer, axis not shown) [Compound 149], the IC50 in assay [1] fell in the range of 50 to 500 nM.
For the molecule `Cc1c(O)cccc1-c1c(N)c(C(N)=O)nc2nccnc12` (atropisomer, axis not shown) [Compound 194], in assay [1], the IC50 is below 50 nM.
`Cc1ccc(O)c(C)c1-c1cc(C(N)=O)cc2nccnc12` (atropisomer, axis not shown) [Compound 165]: the IC50 in assay [1] is at least 5000 nM.
With `NC(=O)c1cc2nccnc2c(-c2cc(O)ccc2Cl)c1N` (atropisomer, axis not shown) [Compound 151], the IC50 in assay [1] fell in the range of 50 to 500 nM.
As to `Cc1ccc2nc(C(N)=O)c(N)c(-c3cccc(O)c3C)c2c1` (atropisomer, axis not shown) [Compound 150], the IC50 in assay [1] is at least 5000 nM.
As for `Cc1ccc(O)c(C)c1-c1c(N)c(C(N)=O)cc2nc(C)c(C)nc12` (atropisomer, axis not shown) [Compound 141], in assay [1], the IC50 is below 50 nM.
Regarding `Cc1c(O)cccc1-c1c(N)c(C(N)=O)nc2nccnc12` (atropisomer, axis not shown) [Compound 195], in assay [1], the half-maximal inhibitory concentration (IC50) is 500 to 1000 nM.
